Source: ChEMBL document CHEMBL4808221, “Design and Synthesis of Novel c-di-GMP G-Quadruplex Inducers as Bacterial Biofilm Inhibitors” (J Med Chem, 2021)
Activity calls are given as the source filed them. No cut-off for these calls is given here.

Experiments:
c-di-GMP G-quadruplex [1] = experiment: Induction of c-di-GMP G-quadruplex formation in Pseudomonas aeruginosa PAO1 harboring wspF gene mutation assessed as inhibition of biofilm formation incubated for 20 hrs by crystal violet staining assay relative to control; format: nucleic-acid assay
c-di-GMP G-quadruplex [2] = experiment: Induction of c-di-GMP G-quadruplex formation in Pseudomonas aeruginosa PAO1 harboring wspF gene mutation assessed as inhibition of biofilm formation at 1.25 uM incubated for 20 hrs by crystal violet staining assay relative to control; format: nucleic-acid assay
Pseudomonas aeruginosa = experiment: Antibacterial activity against Pseudomonas aeruginosa PAO1 harboring wspF gene mutation assessed as reduction in bacterial growth at 512 uM by crystal violet staining assay relative to control; format: functional, organism-based
Quadruplex DNA = experiment: Induction of c-di-GMP G-quadruplex formation (unknown origin) measured at 300 nanometer by CD spectroscopy; format: nucleic-acid assay

SMILES | IC50 (c-di-GMP G-quadruplex [1]) [µM] | inhibition (c-di-GMP G-quadruplex [2]) [%] | Activity (Pseudomonas aeruginosa) | Activity (Quadruplex DNA)
C[n+]1c(/C=C/c2ccc(O)c(F)c2)sc2ccccc21 | > 100 | -7.67 | inactive | inactive
C[n+]1c(/C=C/c2ccncc2)ccc2ccccc21 | > 100 | 13 | inactive | inactive
C[n+]1c(/C=C/c2ccncc2)sc2ccccc21 | > 100 |  | inactive | inactive
COc1cc(/C=C/c2ccc3ccccc3[n+]2C)ccc1O | 5.4 | 21 | inactive | Active
COc1ccc(/C=C/c2sc3ccccc3[n+]2C)cc1 | > 100 | -4.78 | inactive | inactive
C[n+]1c(/C=C/c2cnccn2)ccc2ccccc21 | > 100 | 8.36 | inactive | Active
CN(C)c1ccc(/C=C/c2sc3ccccc3[n+]2C)cc1 | > 100 | -2.67 | inactive | inactive
C[n+]1c(/C=C/c2ccc(N3CCOCC3)cc2)sc2ccccc21 | > 100 | 2.71 | inactive | inactive
C[n+]1c(/C=C/c2ccc(F)cc2)ccc2ccccc21 | > 100 | 21.3 | inactive | 
COc1ccc(/C=C/c2ccc3ccccc3[n+]2C)cc1 | > 100 | -9.62 | inactive | inactive
C[n+]1c(/C=C/c2ccc(Br)cc2)ccc2ccccc21 | > 100 |  | inactive | 
C[n+]1c(/C=C/c2ccc(N)cc2)ccc2ccccc21 | > 100 | 2.11 | inactive | Active
C[n+]1c(/C=C/c2cc[nH]c2)ccc2ccccc21 | 9.61 | 22.2 | inactive | Active
C[n+]1c(/C=C/c2ccc([N+](=O)[O-])cc2)ccc2ccccc21 | > 100 |  | inactive | 
CN1CCN(c2ccc(/C=C/c3ccc4ccccc4[n+]3C)cc2)CC1 | > 100 | -2.34 | inactive | inactive
C[n+]1c(/C=C/c2ccc(O)cc2)sc2ccccc21 | > 100 | 10.5 | inactive | Active
C[n+]1c(/C=C/c2cc[nH]c2)sc2ccccc21 | 7.84 | 17.7 | inactive | Active

SMILES | IC50 (c-di-GMP G-quadruplex [1]) [µM] | inhibition (c-di-GMP G-quadruplex [2]) [%] | Activity (Pseudomonas aeruginosa) | Activity (Quadruplex DNA)
C[n+]1c(/C=C/c2ccc(O)c(O)c2)sc2ccccc21 | 11.5 | 21.7 | inactive | Active
C[n+]1c(/C=C/c2ccc(N)cc2)sc2ccccc21 | > 100 | 14.5 | inactive | 
C[n+]1c(/C=C/c2ccc([N+](=O)[O-])cc2)sc2ccccc21 | > 100 |  | inactive | 
C[n+]1c(/C=C/c2ccccc2)ccc2ccccc21 | > 100 | 18.8 | inactive | inactive
C[n+]1c(/C=C/c2cnccn2)sc2ccccc21 | > 100 | 11.4 | inactive | inactive
C[n+]1c(/C=C/c2ccc(O)c(F)c2)ccc2ccccc21 | > 100 | 4.21 | inactive | inactive
C[n+]1c(/C=C/c2cc(Br)c(O)c(Br)c2)ccc2ccccc21 |  |  | inactive | inactive
C[n+]1c(/C=C/c2cccc(O)c2)ccc2ccccc21 | 6.81 | 29.4 | inactive | Active
C[n+]1c(/C=C/c2ccc(Br)cc2)sc2ccccc21 | > 100 | -4.77 | inactive | 
C[n+]1c(/C=C/c2ccc(F)cc2)sc2ccccc21 | > 100 | 7.72 | inactive | 
C[n+]1c(/C=C/c2cc(Br)c(O)c(Br)c2)sc2ccccc21 | > 100 |  | inactive | inactive
C[n+]1c(/C=C/c2ccccc2)sc2ccccc21 | > 100 | 19.5 | inactive | inactive
CN(C)c1ccc(/C=C/c2ccc3ccccc3[n+]2C)cc1 | > 100 |  | inactive | inactive
C[n+]1c(/C=C/c2ccc(O)cc2)ccc2ccccc21 | > 100 | 13.4 | inactive | Active
C[n+]1c(/C=C/c2ccc(N3CCOCC3)cc2)ccc2ccccc21 | > 100 | 1.18 | inactive | inactive
CN1CCN(c2ccc(/C=C/c3sc4ccccc4[n+]3C)cc2)CC1 | > 100 |  | inactive | inactive
